Data: paper PMC3561256, “Anti-infectious and anti-inflammatory effects of peptide fragments sequentially derived from the antimicrobial peptide centrocin 1 isolated from the green sea urchin, Strongylocentrotus droebachiensis” (AMB Express, 2012)
Several values for one entry are separate records, joined by “and”; a condition that tells them apart may be missing. Identical values can stand only once. No end group written: not given here.

How the values were obtained:
MRSA (ATCC 33591) = format: in vivo; settings: rat excision wound model (MRSA or P. aeruginosa infected), topical application, experimental period
Excerpt: The ability of CEN1 HC and CEN1 HC (Ser) to reduce bacterial counts was estimated in an excision wound model in rat designed based on previously published studies (Gisby and Bryant [2000]; McRipley and Whitney [1976]; Rittenhouse et al. [2006]; Saymen et al. [1972]). Briefly, female Sprague–Dawley rats (200–250 g, Charles River Laboratories, Sulzfeldt, Germany) were housed at the Laboratory of Experimental Biomedicine, Gothenburg, Sweden. They were kept in a 12-h light–dark cycle and were cared for in accordance with regulations for the protection of laboratory animals. All animal experiments were performed after prior approval from the local Ethics Committee for Animal Studies at the Administrative Court of Appeals in Gothenburg, Sweden. The rats were acclimatised in cages for a minimum of five days before surgery, with four rats in each cage. They had free access to water and pellets (Lab For, Lantmännen, Sweden). The rats were anaesthetised during the whole experiment and the anaesthesia was induced by an intra-peritoneal injection of a mixture of fentanyl (272 μg/kg; B. Braun Melsungen AG, Melsungen, Germany) and medetomidine hydrochloride (545 μg/kg; Domitor, Orion Pharma Animal Health AB, Sollentuna, Sweden). The backs of the rats were shaved and swabbed with 70% chlorhexidine alcohol (Fresenius Kabi AB, Uppsala, Sweden). […] Plates containing 30–300 CFU were counted. […]

[1] = tested on: TNF-α secretion from THP-1 cells; experiment: Inhibition of TNF-α secretion from LPS-stimulated THP-1 derived macrophages (ELISA); format: cell-based, human; settings: PMA-differentiated THP-1 cells, LPS 0.1 ng/mL, peptide added 30 min after LPS, 6 h, triplicate, IC50 ± SEM, 4-parameter fit (Origin)
Description: The human monocytic cell line THP-1 (ATCC TIB-202) was cultured in RPMI 1640 medium (PAA Laboratories GmbH) supplemented with 10% FBS (PAA Laboratories GmbH), 1 mM sodium pyruvate (Sigma-Aldrich, St. Louis, MO), and 20 mM 4-(2-hydroxyethyl)-1-piperazineethanesulfonic acid (HEPES; PAA Laboratories GmbH). The cell density was adjusted to 10^6 cells/mL and 100 μL of the cell suspension was added to each well of 96 well plates (Sarstedt, Nümbrecht, Germany). The cells were treated with 10 ng/mL phorbol 12-myristate 13-acetate (PMA; Sigma-Aldrich) to differentiate the monocytes into macrophage-like cells. After 48 h, the cells were stimulated by adding 0.1 ng/mL LPS into the medium specified above, except that 10% FBS was replaced with 5% h.i. FBS. The LPS concentration used was selected based on in vitro titration experiments to give a close to maximum release of cytokines into the cell culture medium over a period of six hours (data not shown). The indicated concentrations of the peptides were added 30 min after addition of LPS. After six hours of incubation, the plates were centrifuged for six minutes at 400 × g and the supernatants were collected and kept frozen at −20°C until analysed for TNF-α and IL-6 production. The cytokine levels were analysed using enzyme-linked immunosorbent assay (ELISA; R&D Systems, Minneapolis, MN).

[2] = tested on: P. aeruginosa (ATCC 15442); experiment: Minimal microbicidal concentration (MMC99) assay; format: cell-based, Pseudomonas aeruginosa
Description: (§1) All the synthesised peptides were tested for their in vitro microbicidal activity against S. aureus (American Type Culture Collection (ATCC) 12600) and P. aeruginosa (ATCC 15442) using a minimal microbicidal concentration (MMC) assay as previously described (Haversen et al. [2010]). Bacteria were cultured in 3.7% brain heart infusion (BHI) broth (Difco, BD Diagnostics, Franklin Lakes, NJ) on a shaker at 250 rpm overnight at 37°C. The culture was diluted 1:10 in fresh 3.7% BHI and incubated for two additional hours to reach log-phase growth. The bacteria were pelleted by centrifugation at 900 × g and suspended in 0.037% BHI to a concentration of 10^7 CFU/mL, estimated by measuring optical density at 600 nm (OD600). To investigate the influence of physiological conditions on microbicidal effect of the peptides, four different assay media were used: 0.037% BHI, 0.037% BHI supplemented with 85 or 150 mM sodium chloride (NaCl), and 50% heat inactivated simulated wound fluid (h.i. SWF) composed of a 50:50 mixture of 0.1% peptone (Oxoid, Basingstoke, UK) in 150 mM NaCl and fetal bovine serum (FBS; PAA Laboratories GmbH, Pasching, Austria), diluted two times in ultra pure water. The peptides were serially diluted by twofold steps from 200 to 1.56 mg/L in the assay media used, and 100 μL of the peptide solutions were mixed with 5 μL bacterial suspensions in a 96 well plate (Nunc, Roskilde, Denmark) and incubated at 37°C for two hours. An aliquot of 5 μL from each well was aspirated and added as drops onto blood agar plates (Columbia agar; Oxoid, Basingstoke, UK) supplemented with 5% defibrinated horse blood (Swedish National Veterinary Institute (SVA), Uppsala, Sweden), and the plates were incubated overnight at 37°C. All samples were processed as duplicates. The minimal test compound concentration causing ≥99% reduction of bacteria was defined as the MMC99. The concentration of the bacterial suspension used in the assay was confirmed by viable count estimation on blood agar plates (Oxoid).
(§2) CEN1 HC was further screened for microbicidal activity against a panel of microbial strains using the MMC99 assay, as described above, except using only two different assay media; 0.037% BHI and 50% h.i. SWF. The following microbial strains were tested for sensitivity: S. aureus (ATCC 12600), MRSA (ATCC 33591), Staphylococcus epidermidis (ATCC 12228), Streptococcus pyogenes (ATCC 12344), Propionibacterium acnes (ATCC 6919) Escherichia coli (ATCC 11775), P. aeruginosa (ATCC 15442), Klebsiella pneumoniae (Culture collection, University of Gothenburg (CCUG) 59413, clinical isolate resistant to penicillins, cephalosporins, aztreonam and carbapenems, with the reference strain ATCC 13883), Acinetobacter baumannii (CCUG 58437, clinical isolate resistant to tobramycin, trimsulfa, ciprofloxacin, cefotaxim, ceftazidim, meropenem, pipera/tazobactam, with the reference strain ATCC 19606) and the yeast strain Candida albicans (ATCC 64549). Mupirocin (GlaxoSmithKline) and fusidic acid (LEO Pharma) were used as comparative control antibiotics.

S. aureus (ATCC 12600) = experiment: Minimal microbicidal concentration (MMC99) assay; format: cell-based, Staphylococcus aureus
Description: as §1, §2

[3] = synthesis and antimicrobial testing of the different monomers; ref Li et al. [2010]; cited from earlier work
Excerpt: Invertebrates are proving to be a rich source of AMPs, possibly because of their more pronounced reliance on innate immune functions in their defence against microbial pathogens compared to vertebrates. Many of the peptides isolated from marine species are structurally unique, display significant biological activities and are therefore expected to be useful drug leads (Sperstad et al. [2011]). In a previous study, we detected broad-spectrum antibacterial activity in coelomocyte (blood cell) extracts of the green sea urchin, S. droebachiensis (Haug et al. [2002]). Subsequently, an AMP named cen ...

[4] = Table 2 screen, medium 0.037% BHI + 85 mM NaCl, 2 h at 37°C, up to 200 mg/L, duplicates, maximum of at least two independent experiments
[5] = Table 2 screen, medium 0.037% BHI + 150 mM NaCl, 2 h at 37°C, up to 200 mg/L, duplicates, maximum of at least two independent experiments
[6] = Table 2 screen, medium 50% heat inactivated simulated wound fluid, 2 h at 37°C, up to 200 mg/L, duplicates, maximum of at least two independent experiments

Substance | Animal death or local reactions in connection to the application of the test article (MRSA (ATCC 33591)) | IC50, TNF-α secretion [1] [mg/L] | P. aeruginosa MMC99, 0.037% BHI + 85 mM NaCl [2, 4] [mg/L] | P. aeruginosa MMC99, 0.037% BHI + 150 mM NaCl [2, 5] [mg/L] | P. aeruginosa MMC99, 0.037% BHI ([2]; Table 2 screen, medium 0.037% BHI, 2 h at 37°C, up to 200 mg/L, duplicates, maximum of at least two independent experiments) [mg/L] | P. aeruginosa MMC99, 50% SWF [2, 6] | P. aeruginosa MMC99, 0.037% BHI with 85 mM or 150 mM NaCl ([2]; text summary over both NaCl concentrations of Table 2b, compared to 0.037% BHI only) | S. aureus MMC99, 0.037% BHI + 85 mM NaCl (S. aureus (ATCC 12600); [4]) [mg/L] | S. aureus MMC99, 0.037% BHI + 150 mM NaCl (S. aureus (ATCC 12600); [5]) [mg/L] | S. aureus MMC99, 0.037% BHI (S. aureus (ATCC 12600); Table 2 screen, medium 0.037% BHI, ≥99% reduction of bacteria, 2 h at 37°C, tested up to 200 mg/L, duplicates, maximum value from at least two independent experiments) [mg/L] | S. aureus MMC99, 50% SWF (S. aureus (ATCC 12600); [6]) | S. aureus MMC99, 0.037% BHI with 85 mM or 150 mM NaCl (S. aureus (ATCC 12600); text summary over both NaCl concentrations of Table 2a) [mg/L] | Antimicrobial activity of the synthesised monomers of centrocin 1 [3]
GWFKKTFHKVSHAVKSGIHAGQRGCSALGF [CEN1 HC] | No animal death or local reactions | – | – | – | – | – | – | – | – | – | – | – | –
GW(Br)FKKTFHKVSHAVKSGIHAGQRGCSALGF [CEN1 HC-Br, heavy chain of centrocin 1, 30 residues, brominated tryptophan in position 2] | – | ~4.0 | 12.5 | 25 | 25 | 100.0 mg/L and 100 mg/L | no reduction in effect | 25 | 50 | 25 | 25.0 to 50.0 mg/L and 50 mg/L | 25.0 to 50.0 | equally active as the original dimeric peptide
